Assay results reported in US20090076029A1 (Palatin Technologies, Inc., priority 2007, published 2009).
Read-outs that look alike come from different tables or passages of the source. Square brackets hold non-standard residues; d marks the D form. * marks the point of attachment. dPhe(4-Cl) = N[C@H](Cc1ccc(Cl)cc1)C(=O)O; Heptanoyl = CCCCCCC(=O)*; Bn = c1ccc(C*)cc1

Key:
hMC3-R = target: T1, hMC3-R; assay: Competitive inhibition assay using [I125]-NDP-α-MSH, hMC3-R membranes; format: binding, human; conditions: read-out: Ki (nM) (NDP-α-MSH) MC3-R
T1 construct: expressed in transfected cells; host or cells: HEK-293
Experimental: (§1) Competitive inhibition assay using [1125]-NDP-α-MSH. A competitive inhibition binding assay was conducted using membranes prepared from HEK-293 cells transfected to express hMC3-R, hMC4-R or hMC5-R, and from B-16 mouse melanoma cells (containing MC1-R) using 0.2 to 0.4 nM [I^125]-NDP-α-MSH (New England Nuclear) in 50 mM HEPES buffer containing 1 mM MgCl2, 2 mM CaCl2, and 5 mM KCl, at pH 7.2. In certain experiments, HEK-293 cells transfected to express hMC1-R were also employed. The assay tube also contained a chosen concentration of the test compound of this invention, typically a 1 μM concentration, for determining inhibition of the binding of [^1125]-NDP-α-MSH to its receptor. Non-specific binding was measured by inhibition of binding of [I^125]-NDP-α-MSH in the assay with the presence of 1 μM α-MSH.
(§2) The assay mixture was incubated for 90 minutes at room temperature, then filtered and the membranes washed three times with ice cold buffer. The filter was dried and counted in a gamma counter for remaining radioactivity bound to the membranes. 100% specific binding was defined as the difference in radioactivity (cpm) bound to cell membranes in the absence and presence of 1 μM α-MSH. The cpm obtained in presence of test compounds were normalized with respect to 100% specific binding to determine the percent inhibition of [125]-NDP-α-MSH binding. Each assay was conducted in triplicate and the actual mean values are described, with results less than 0% reported as 0%.

hMC4-R [1] = target: T2, hMC4-R; assay: Competitive inhibition assay using [I125]-NDP-α-MSH, hMC4-R membranes; format: binding, human; conditions: for attenuation of binding of α-MSH and AgRP to MC4-R: both ligands (NDP-α-MSH and AgRP), summary
T2 construct: expressed in transfected cells; host or cells: HEK-293
Experimental: as §1, §2

hMC5-R = target: T3, hMC5-R; assay: Competitive inhibition assay using [I125]-NDP-α-MSH, hMC5-R membranes; format: binding, human; conditions: read-out: Ki (nM) (NDP-α-MSH) MC5-R
T3 construct: expressed in transfected cells; host or cells: HEK-293
Experimental: as §1, §2

hMC4-R [2] = tested on: T2, hMC4-R; format: binding, human; conditions: for Inhibition at 1 μM (AgRP) MC4-R: 1 μM compound
Experimental: Competitive binding assay using [I^125]-AgRP (83-132). Competitive binding studies using [I^125]-AgRP (83-132) were carried out on membranes isolated from cells expressing hMC4-R. The assay was performed in 96 well GF/B Millipore multiscreen filtration plates (MAFB NOB10) pre-coated with 0.5% bovine serum albumin (Fraction V). The assay mixture contained 25 mM HEPES buffer (pH 7.5) with 100 mM NaCl, 2 mM CaCl2, 2 mM MgCl2, 0.3 mM 1,10-phenanthroline, 0.5% bovine serum albumin, cell membranes, radioligand [I^125]-AgRP (83-132) (NEN), and increasing concentrations of compounds in a total volume of 200 μL. Binding was measured at radioligand concentrations of 0.2 nM. After incubating for 1 hour at 37° C., the reaction mixture was filtered and washed with an assay buffer containing 500 mM NaCl. The dried discs were punched out from the plate and counted on a gamma counter. Care was taken to limit the specific binding of the ligand to an amount not exceeding 10% of the counts added to the reaction mixture. Data were analyzed using the Prism Graph-Pad curve fitting software.

hMC4-R [3] = tested on: T2, hMC4-R; assay: cAMP functional assay in HEK-293 cells expressing MC4-R (agonist, neutral antagonist/Schild); format: cell-based, human; conditions: for intrinsic activity at MC4-R: NDP-α-MSH maximal stimulation = 1.0
Experimental: General method for EC50 determination in functional activity assay. Functional evaluation of compounds at melanocortin receptors was performed by measuring the accumulation of intracellular cAMP in HEK-293 cells expressing hMC3-R, hMC4-R or hMC5-R, and in B-16 mouse melanoma cells expressing MC1-R. Cells suspended in Earle's Balanced Salt Solution containing 10 mM HEPES (pH 7.5), 5 mM MgCl2, 1 mM glutamine, 0.1% albumin and 0.6 mM 3-isobutyl-1-methyl-xanthine, a phosphodiesterase inhibitor, were plated in 96 well plates at a density of 0.5×10^5 cells per well. Cells were incubated with the test compounds in the presence or absence of α-MSH for 1 hour at 37° C. cAMP levels in the cell lysates were measured using an EIA kit (Amersham). Data analysis and EC50 values were determined using nonlinear regression analysis with Prism Graph-Pad software.
Functional status. The agonist/antagonist status with respect to MC1-R, MC-3R, MC4-R and MC5-R of certain compounds of the invention was determined.
Assay for agonist. Evaluation of the molecules to elicit a functional response in HEK-293 cells expressing MC4-R was accomplished by measuring the accumulation of intracellular cAMP following treatment. Confluent HEK-293 cells expressing MC4-R were detached by enzyme free cell suspension buffer. Cells were suspended in Earle's Balanced Salt Solution containing 10 mM HEPES (pH 7.5), 1 mM MgCl2, 1 mM glutamine, 0.5% albumin and 0.3 mM 3-isobutyl-1-methyl-xanthine (IBMX), a phosphodiesterase inhibitor. The cells were plated in 96 well plates at a density of 0.5×10^5 cells per well and pre-incubated for 30 minutes. The cells were then challenged with the test compounds dissolved in DMSO at a concentration range of 0.05-5000 nM in a total assay volume of 200 μL for 1 hour at 37° C. The concentration of DMSO was always held at 1% in the assay mixture. NDP-α-MSH was used as the reference agonist. At the end of the incubation period the cells were disrupted by the addition of 50 μL of lysis buffer from a cAMP EIA kit (Amersham). Complete rupture of the cells was obtained by pipetting the cells multiple times. cAMP levels in the cell lysates were measured after appropriate dilution using the EIA kit (Amersham) method. Data analysis and EC50 values were determined by using nonlinear regression analysis with Prism Graph-Pad software. […] FIG. 1 illustrates typical results, showing the stimulation of cAMP using the compound of Example 11 in HEK-293/MC4-R cells with comparison to NDP-α-MSH.
Assay for Neutral Antagonist. Compounds with a high affinity for binding to MC4-R membranes but with less potency in terms of cAMP accumulation (EC50>1000 nM) and low response ratio (<0.1) were analyzed for their ability to antagonize the stimulatory effect of the agonist NDP-α-MSH. These studies were carried out in HEK-293 cells expressing MC4-R. Cells were incubated with the compounds in the presence of the agonist NDP-α-MSH and the extent of antagonism was measured by the decrease in intracellular cAMP concentrations. Screening the compounds for antagonist activity was performed at a single concentration of NDP-α-MSH (1.0 nM) over a compound concentration range of 0.5-5000 nM.
Experimental details were similar to the analysis for agonistic activity described above. Briefly, cells were pre-incubated for 30 minutes with the test compounds at concentrations between 0.5 nM and 5000 nM. The cells were then stimulated with NDP-α-MSH at a concentration of 1 nM for 1 hour. For Schild's analysis, the interactions were studied using at least 3 concentrations of the compounds, separated by a log unit, over a full range of the agonist (0.005-5000 nM). cAMP levels were measured in the cell lysates after appropriate dilution. Nonlinear regression analysis with Prism Graph-Pad software was used for Schild analysis and to obtain EC50 values. pA2 values were derived from the Schild plot of the data.

MC1-R = target: T4, MC1-R; assay: Competitive inhibition assay using [I125]-NDP-α-MSH, MC1-R membranes; format: binding, mouse; conditions: for Inhibition at 1 μM (NDP-α-MSH) MC1-R: 1 μM compound
T4 construct: other: 1 μM compound
Experimental: as §1, §2

[4] = MC4-R membranes, Table 1, read-out: Ki (nM) I125-NPD-α-MSH
[5] = read-out: Ki (nM) (NDP-α-MSH) MC4-R
[6] = MC4-R membranes, Table 1, read-out: Ki (nM) I125-AgRP
[7] = cAMP assay, read-out: EC50 (nM) at MC4-R

Compound | Ki (hMC3-R) [nM] | Ki (hMC4-R [1]; [4]) [nM] | attenuation of binding of α-MSH and AgRP to MC4-R (hMC4-R [1]) | Ki (hMC4-R [1]; [5]) [nM] | Ki (hMC5-R) [nM] | Inhibition at 1 μM (AgRP) MC4-R (hMC4-R [2]) [%] | Ki (hMC4-R [2]; [6]) [nM] | Ki (hMC4-R [2]; read-out: Ki (nM) (AgRP) MC4-R) | functional status (pAg, Ag, Antag, Inactive) (hMC4-R [3]; MC4-R, Table 1) | EC50 (hMC4-R [3]; MC4-R, Table 1, read-out: EC50) [nM] | intrinsic activity at MC4-R (hMC4-R [3]) | EC50 (hMC4-R [3]; [7]) [nM] | Ki (MC1-R) [nM] | Inhibition at 1 μM (NDP-α-MSH) MC1-R (MC1-R) [%] | pA2 (M) (hMC4-R [3]; MC4-R antagonists, Table 1) | pA2 value at MC4-R (hMC4-R [3]; Schild plot vs NDP-α-MSH) | functional status at MC4-R (hMC4-R [3]; cAMP assay, mostly at 1 μM) | EC50 (hMC4-R [3]; MC4-R, Table 1 in μM, read-out: EC50) [nM]
7′-amino-heptanoyl-Ser(Bzl)-D-Phe(4-Cl)-Arg-S-(−)-1-(1-naphthyl)ethylamide [Example 17] | 125 | 7 | attenuate the binding of both α-MSH and AgRP to MC4-R | 7 | 313 | 100 | 0.6 | 0.6 | pAg (“pAg” means partial agonist) | 17 | 0.3 | 17 | – | – | – | – | – | –
N=C(N)NCCC[C@H]1CN(CCc2ccc3ccccc3c2)CCN1C(=O)[C@H](N)Cc1ccc(Cl)cc1Cl [Example 18, N-{3-[(S)-1%-[(R)-2-Amino-3-(2,4-dichloro-phenyl)-propionyl]-4-(2-naphthalen-2-ylethyl)-piperazin-2-yl]-propyl}-guanidine] | 97 | 3 | attenuate the binding of both α-MSH and AgRP to MC4-R | 3 | 259 | 100 | 1 | 1 | pAg (“pAg” means partial agonist) | 22 | 0.4 | 22 | 1200 | 6 | – | – | – | –
N=C(N)NCCC[C@H]1C(=O)N2C(CC[C@@H]2COc2ccc3ccccc3c2)N1C(=O)[C@@H](Cc1ccc(Cl)cc1Cl)NC(=O)[C@@H]1Cc2ccccc2CN1 (stereo partly drawn) [Example 23, (S)-1,2,3,4-Tetrahydro-isoquinoline-3-carboxylic acid {(R)-1-(2,4-dichloro-benzyl)-2-[(2S,5R)-2-(3-guanidino-propyl)-5-(naphthalen-2-yloxymethyl)-3-oxo-hexahydro-pyrrolo[1,2-a]imidazol-1-yl]-2-oxo-ethyl}-amide] | 42 | 1 | – | 1 | 26 | 100 | 1.2 | 1.2 | Antag (“Antag” means antagonist) | – | – | – | – | – | 8.086 | 8.0 | antagonist | –
Heptanoyl-T(Bn)[dPhe(4-Cl)]RW-NH2 [Example 24] | 374 | 21 | attenuate the binding of both α-MSH and AgRP to MC4-R | 21 | 292 | 90 | 69 | 69 | pAg (“pAg” means partial agonist) | – | 0.4 | > 1000 | – | – | – | – | – | > 1000
NH2—(CH2)6—C(═O)-Ser(Bzl)-D-Phe(4-Cl)-Arg-Trp-Asp-Phe-NH2 [Example 15] | 76 | 5 | attenuate the binding of both α-MSH and AgRP to MC4-R | 5 | 405 | 95 | 0.6 | 0.6 | pAg (“pAg” means partial agonist) | 283 | 0.5 | 238 | 242 | 38 | – | – | – | –
NH2—(CH2)6—C(═O)-Ser(Bzl)-D-Phe(4-Cl)-Arg-Trp-NH2 [Example 1] | 27 | – | attenuate the binding of both α-MSH and AgRP to MC4-R | 1 | 208 | – | – | 8 | pAg (“pAg” means partial agonist) | 296 | 0.3 | 296 | 351 | 33 | – | – | – | –
